Laboratory results: patent US12246076B2, “Radiolabeled compounds for in vivo imaging of gastrin-releasing peptide receptor (GRPR) and treatment of GRPR-related disorders” (PROVINCIAL HEALTH SERVICES AUTHORITY, priority 2022, dated 2025)
pKi: −log10 of the molar value.

Molecular target: T1, GRPR (Homo sapiens, UniProt P30550)
T1 construct: endogenous in cells; host or cells: PC-3 prostate cancer cells
Test: In vitro competition binding assay, displacement of [^125I-Tyr^4]bombesin on GRPR-expressing PC-3 cells
Conditions: n = 2-3, read-out: Binding affinities Ki Mean
Method: PC-3 cells were seeded at 2×10^5 cells/well in 24-well poly-D-lysine plates 24-48 hours prior to the experiment. The growth medium was replaced by 400 μL of reaction medium (RPMI 1640 containing 2 mg/mL BSA, 4.8 mg/mL HEPES, 1 U/mL penicillin G and 1 μg/mL streptomycin). Cells were incubated for 30-60 min at 37° C. […] The cells were incubated with moderate agitation for 1 h at 27° C., washed twice with ice-cold PBS, harvested by trypsinization, and measured for radioactivity on the gamma counter. Data were analyzed using nonlinear regression (one binding site model for competition assay) with GraphPad Prism 8.
In vitro competition binding assays were performed according to the procedure outlined in Example 1.

T1 sequence (P30550 whole entry): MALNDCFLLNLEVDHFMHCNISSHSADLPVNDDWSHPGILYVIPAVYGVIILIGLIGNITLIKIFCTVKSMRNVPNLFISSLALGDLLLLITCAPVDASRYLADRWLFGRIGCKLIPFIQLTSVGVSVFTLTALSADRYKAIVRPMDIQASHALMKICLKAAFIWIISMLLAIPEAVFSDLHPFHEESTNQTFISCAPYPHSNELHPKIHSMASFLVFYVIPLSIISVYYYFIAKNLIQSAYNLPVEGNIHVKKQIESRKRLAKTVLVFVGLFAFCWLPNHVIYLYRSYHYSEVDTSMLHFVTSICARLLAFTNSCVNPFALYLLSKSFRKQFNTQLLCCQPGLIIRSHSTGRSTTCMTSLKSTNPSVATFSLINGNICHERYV

`CC(C)C[C@@H](CN1CSC[C@H]1C(N)=O)NC(=O)[C@H](Cc1c[nH]cn1)NC(=O)CNC(=O)[C@@H](NC(=O)[C@H](C)NC(=O)[C@H](Cc1c[nH]c2ccccc12)NC(=O)[C@H](CCC(N)=O)NC(=O)[C@H]1Cc2c([nH]c3ccccc23)CN1C(=O)CN1CCC(NC(=O)CN2CCN(CC(=O)O)CCN(CC(=O)O)CCN(CC(=O)O)CC2)CC1)C(C)C` [LW01061, DOTA-Pip-D-Tpi-Gln-Trp-Ala-Val-Gly-His-Leu-ψ-Thz-NH2] was tested, and the pKi was < 6.40.
In the case of `CC(C)C[C@H](NC(=O)[C@H](Cc1cnc[nH]1)NC(=O)CNC(=O)[C@@H](NC(=O)[C@H](C)NC(=O)[C@H](Cc1c[nH]c2ccccc12)NC(=O)[C@H](CCC(N)=O)NC(=O)[C@H](N)Cc1ccccc1)C(C)(C)C)C(=O)N1CSC[C@H]1C(N)=O` [LW01080, D-Phe-Gln-Trp-Ala-Tle-Gly-His-Leu-Thz-NH2], the pKi was 8.45.
Work on `CC(C)C[C@H](NC(=O)[C@H](Cc1cnc[nH]1)NC(=O)CNC(=O)[C@@H](NC(=O)[C@H](C)NC(=O)[C@H](Cc1c[nH]c2ccccc12)NC(=O)[C@H](CCC(N)=O)NC(=O)[C@H](N)Cc1ccccc1)C(C)C)C(=O)N1CSC[C@H]1C(N)=O` [LW01085] yielded a pKi of 8.06.
With `CC(C)C[C@H](NC(=O)[C@H](Cc1cnc[nH]1)N(C)C(=O)CNC(=O)[C@@H](NC(=O)[C@H](C)NC(=O)[C@H](Cc1c[nH]c2ccccc12)NC(=O)[C@H](CCC(N)=O)NC(=O)[C@H](N)Cc1ccccc1)C(C)C)C(=O)N1CSC[C@H]1C(N)=O` [LW01088, D-Phe-Gln-Trp-Ala-Val-Gly-NMe-His-Leu-Thz-NH2] the pKi was 8.05.
For `CC(C)C[C@H](NC(=O)[C@H](Cc1cnc[nH]1)NC(=O)CNC(=O)[C@@H](NC(=O)[C@H](C)NC(=O)[C@H](Cc1cn(C)c2ccccc12)NC(=O)[C@H](CCC(N)=O)NC(=O)[C@H](N)Cc1ccccc1)C(C)C)C(=O)N1CSC[C@H]1C(N)=O` [LW01136], the pKi was 7.45.
`CC(C)C[C@H](NC(=O)[C@H](Cc1c[nH]cn1)NC(=O)CNC(=O)[C@@H](NC(=O)[C@H](C)NC(=O)[C@H](Cc1c[nH]c2ccc(F)cc12)NC(=O)[C@H](CCC(N)=O)NC(=O)[C@H](N)Cc1ccccc1)C(C)C)C(=O)N1CSC[C@H]1C(N)=O` [LW01166] gave a pKi of 7.75.
`CC(C)C[C@H](NC(=O)[C@H](Cc1c[nH]cn1)NC(=O)CNC(=O)[C@@H](NC(=O)[C@H](C)NC(=O)[C@H](Cc1c[nH]c2cc(F)ccc12)NC(=O)[C@H](CCC(N)=O)NC(=O)[C@H](N)Cc1ccccc1)C(C)C)C(=O)N1CSC[C@H]1C(N)=O` [LW01175] gave a pKi of 7.33.
For `CC(C)C[C@H](NC(=O)[C@H](Cc1c[nH]cn1)NC(=O)CNC(=O)[C@@H](NC(=O)[C@H](C)NC(=O)[C@H](Cc1c[nH]c2c(F)cccc12)NC(=O)[C@H](CCC(N)=O)NC(=O)[C@H](N)Cc1ccccc1)C(C)C)C(=O)N1CSC[C@H]1C(N)=O` [LW01177, D-Phe-Gln-7-F-Trp-Ala-Val-Gly-His-Leu-Thz-NH2], the pKi was 8.03.
`CC(C)C[C@H](NC(=O)[C@H](Cc1c[nH]cn1)NC(=O)CNC(=O)[C@@H](NC(=O)[C@H](C)NC(=O)[C@H](Cc1c[nH]c2cccc(F)c12)NC(=O)[C@H](CCC(N)=O)NC(=O)[C@H](N)Cc1ccccc1)C(C)C)C(=O)N1CSC[C@H]1C(N)=O` [LW01180] was tested, and the pKi was 7.36.
